Legend:
Type in all cases: binding
LRRK2^KW = biological target: T1, LRRK2^KW (Homo sapiens, UniProt Q5S007); assay: DSF thermal stabilization of LRRK2^KW; details: for ∆Tm (K): DSF, LRRK2^KW, 10 μM inhibitor
T1 construct: LRRK2 R1847 to E2527; His6-Z-tag (TEV cleavable) (N, cleaved yes); host or cells: Sf9 insect cells (baculovirus)
T1 sequence (Q5S007 1847-2527): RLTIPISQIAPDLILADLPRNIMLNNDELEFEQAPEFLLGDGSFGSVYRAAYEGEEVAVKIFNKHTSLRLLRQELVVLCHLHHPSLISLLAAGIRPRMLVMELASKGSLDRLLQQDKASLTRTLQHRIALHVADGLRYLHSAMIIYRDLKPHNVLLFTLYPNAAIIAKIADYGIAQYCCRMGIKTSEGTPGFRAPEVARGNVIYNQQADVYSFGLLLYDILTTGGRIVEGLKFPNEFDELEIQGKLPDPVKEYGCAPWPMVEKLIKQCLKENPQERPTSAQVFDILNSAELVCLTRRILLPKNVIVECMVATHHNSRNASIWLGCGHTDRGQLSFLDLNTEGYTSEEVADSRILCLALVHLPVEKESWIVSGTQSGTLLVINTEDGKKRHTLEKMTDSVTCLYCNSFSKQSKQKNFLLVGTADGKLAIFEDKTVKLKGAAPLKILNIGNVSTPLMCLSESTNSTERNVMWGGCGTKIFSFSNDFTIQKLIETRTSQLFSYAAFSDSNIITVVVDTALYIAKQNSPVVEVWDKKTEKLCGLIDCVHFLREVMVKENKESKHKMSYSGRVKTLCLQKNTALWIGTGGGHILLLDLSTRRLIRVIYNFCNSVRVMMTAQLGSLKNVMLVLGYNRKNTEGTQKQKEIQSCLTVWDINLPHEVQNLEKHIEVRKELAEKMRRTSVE
Procedure, shortened: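 DSF on 4 μM LRRK2^KW in 20 mM Hepes pH 7.4, 150 mM NaCl, 0.5 mM TCEP, 0.5% glycerol, 20 μM GDP, 2.5 mM MgCl2 with SYPRO Orange; inhibitor at 10 μM. Tm was taken as the minimum of the first derivative of fluorescence versus temperature, relative to control.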

[1] = biological target: T2, ~100 representative kinases (Homo sapiens, UniProt Q14680); assay: DSF 100 kinase selectivity screen; details: protein MELK; average of three replicates;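 note: compound tested at 20 µM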
T2 construct: Recombinant protein kinase domains with a concentration of 2 μM
Description: (§1) Recombinant protein kinase domains with a concentration of 2 μM were mixed with a 20 μM compound solution in dimethyl sulfoxide (DMSO), 20 mM Hepes (pH 7.5), and 500 mM NaCl. SYPRO Orange (5000×, Invitrogen) was added as a fluorescence probe (1μl/ml). Subsequently, temperature-dependent protein unfolding profiles were measured using the QuantStudio 5 realtime PCR machine (Thermo Fisher Scientific, Waltham, MA, USA). […] The temperature was raised with a step rate of 3°C/min. […] Differences in melting temperature are given as ΔTm values in degrees Celsius. […]

[2] = biological target: T3, ~100 representative kinases (Homo sapiens, UniProt P15735); assay: DSF 100 kinase selectivity screen; details: protein PHKG2; average of three replicates;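 note: compound tested at 20 µM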
T3 construct: Recombinant protein kinase domains with a concentration of 2 μM
T3 sequence (P15735 1-406): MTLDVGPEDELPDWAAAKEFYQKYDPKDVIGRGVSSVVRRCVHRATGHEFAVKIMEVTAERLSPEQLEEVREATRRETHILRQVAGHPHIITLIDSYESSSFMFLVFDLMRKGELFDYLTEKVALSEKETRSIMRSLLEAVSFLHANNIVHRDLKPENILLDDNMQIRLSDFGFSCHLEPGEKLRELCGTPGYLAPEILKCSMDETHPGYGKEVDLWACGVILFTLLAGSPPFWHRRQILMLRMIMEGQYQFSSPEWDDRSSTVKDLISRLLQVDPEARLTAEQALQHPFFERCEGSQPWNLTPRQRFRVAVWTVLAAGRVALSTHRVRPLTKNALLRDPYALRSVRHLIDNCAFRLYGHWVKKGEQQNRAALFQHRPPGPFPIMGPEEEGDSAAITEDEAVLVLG
Description: as §1

[3] = biological target: T4, ~100 representative kinases (Homo sapiens, UniProt Q13188); assay: DSF 100 kinase selectivity screen; details: Protein STK3; DSF; average of three replicates;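 note: compound tested at 20 µM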
T4 construct: Recombinant protein kinase domains with a concentration of 2 μM
T4 sequence (Q13188 1-491): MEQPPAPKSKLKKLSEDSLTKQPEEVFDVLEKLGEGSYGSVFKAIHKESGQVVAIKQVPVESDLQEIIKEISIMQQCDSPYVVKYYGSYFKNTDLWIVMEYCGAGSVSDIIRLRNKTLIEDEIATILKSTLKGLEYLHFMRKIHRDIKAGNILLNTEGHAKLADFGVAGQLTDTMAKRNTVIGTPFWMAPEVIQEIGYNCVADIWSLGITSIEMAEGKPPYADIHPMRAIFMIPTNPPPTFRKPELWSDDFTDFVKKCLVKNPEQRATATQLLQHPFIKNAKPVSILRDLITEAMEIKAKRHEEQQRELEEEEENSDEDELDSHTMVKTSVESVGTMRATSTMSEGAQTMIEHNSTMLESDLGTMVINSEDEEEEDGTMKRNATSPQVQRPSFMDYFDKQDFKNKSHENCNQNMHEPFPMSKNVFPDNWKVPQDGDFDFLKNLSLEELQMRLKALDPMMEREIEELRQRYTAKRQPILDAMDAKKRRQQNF
Description: as §1

[4] = biological target: T5, ~100 representative kinases (Homo sapiens, UniProt P28482); assay: DSF 100 kinase selectivity screen; details: protein MAPK1; average of three replicates;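 note: compound tested at 20 µM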
T5 construct: Recombinant protein kinase domains with a concentration of 2 μM
Description: as §1

[5] = biological target: T6, ~100 representative kinases (Homo sapiens, UniProt Q2M2I8); assay: DSF 100 kinase selectivity screen; details: Protein AAK1; average of three replicates;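 note: compound tested at 20 µM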
T6 construct: Recombinant protein kinase domains with a concentration of 2 μM
Description: as §1

[6] = biological target: T7, ~100 representative kinases (Homo sapiens, UniProt Q13627); assay: DSF 100 kinase selectivity screen; details: Protein DYRK1A; average of three replicates;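 note: compound tested at 20 µM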
T7 construct: Recombinant protein kinase domains with a concentration of 2 μM
Description: as §1

[7] = biological target: T8, ~100 representative kinases (Homo sapiens, UniProt O15264); assay: DSF 100 kinase selectivity screen; details: protein MAPK13; average of three replicates
T8 construct: Recombinant protein kinase domains with a concentration of 2 μM
T8 sequence (O15264 1-365): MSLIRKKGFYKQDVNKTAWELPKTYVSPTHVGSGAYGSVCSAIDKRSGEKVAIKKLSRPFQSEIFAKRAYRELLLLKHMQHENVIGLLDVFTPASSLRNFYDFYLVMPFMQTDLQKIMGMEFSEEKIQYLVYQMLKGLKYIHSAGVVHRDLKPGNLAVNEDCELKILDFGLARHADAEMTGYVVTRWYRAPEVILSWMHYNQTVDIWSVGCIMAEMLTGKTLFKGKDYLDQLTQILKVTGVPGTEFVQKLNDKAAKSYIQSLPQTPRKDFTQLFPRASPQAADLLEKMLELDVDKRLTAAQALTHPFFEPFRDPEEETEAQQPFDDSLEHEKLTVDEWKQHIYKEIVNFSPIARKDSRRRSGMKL
Description: as §1

T6 sequence (Q2M2I8 whole entry, the tested form may be a part): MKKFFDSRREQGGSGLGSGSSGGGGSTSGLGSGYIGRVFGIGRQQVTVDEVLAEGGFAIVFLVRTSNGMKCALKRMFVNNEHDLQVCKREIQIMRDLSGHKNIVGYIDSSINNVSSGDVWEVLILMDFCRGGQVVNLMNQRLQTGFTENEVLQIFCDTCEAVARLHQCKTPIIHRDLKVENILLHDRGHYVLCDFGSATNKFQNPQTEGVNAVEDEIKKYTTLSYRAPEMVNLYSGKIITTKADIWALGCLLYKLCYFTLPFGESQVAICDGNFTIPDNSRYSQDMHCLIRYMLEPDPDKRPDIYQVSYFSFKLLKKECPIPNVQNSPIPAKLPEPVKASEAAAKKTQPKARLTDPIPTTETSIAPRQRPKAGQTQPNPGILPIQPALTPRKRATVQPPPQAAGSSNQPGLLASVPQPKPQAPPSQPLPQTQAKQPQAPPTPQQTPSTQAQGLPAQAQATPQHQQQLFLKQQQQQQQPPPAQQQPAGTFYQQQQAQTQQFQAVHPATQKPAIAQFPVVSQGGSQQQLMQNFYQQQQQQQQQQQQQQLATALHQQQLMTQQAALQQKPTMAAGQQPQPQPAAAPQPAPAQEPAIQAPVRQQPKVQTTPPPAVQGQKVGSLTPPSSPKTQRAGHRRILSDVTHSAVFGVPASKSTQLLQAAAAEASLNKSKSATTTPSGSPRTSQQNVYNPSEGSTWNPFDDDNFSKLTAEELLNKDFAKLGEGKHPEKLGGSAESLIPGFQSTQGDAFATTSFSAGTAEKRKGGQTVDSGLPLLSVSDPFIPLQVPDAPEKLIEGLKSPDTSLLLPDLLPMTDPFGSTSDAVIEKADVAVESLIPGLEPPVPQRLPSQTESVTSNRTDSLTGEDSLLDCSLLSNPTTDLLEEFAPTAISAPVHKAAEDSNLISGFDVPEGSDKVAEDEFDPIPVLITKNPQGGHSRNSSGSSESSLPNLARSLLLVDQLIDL
T2 sequence (Q14680 whole entry, the tested form may be a part): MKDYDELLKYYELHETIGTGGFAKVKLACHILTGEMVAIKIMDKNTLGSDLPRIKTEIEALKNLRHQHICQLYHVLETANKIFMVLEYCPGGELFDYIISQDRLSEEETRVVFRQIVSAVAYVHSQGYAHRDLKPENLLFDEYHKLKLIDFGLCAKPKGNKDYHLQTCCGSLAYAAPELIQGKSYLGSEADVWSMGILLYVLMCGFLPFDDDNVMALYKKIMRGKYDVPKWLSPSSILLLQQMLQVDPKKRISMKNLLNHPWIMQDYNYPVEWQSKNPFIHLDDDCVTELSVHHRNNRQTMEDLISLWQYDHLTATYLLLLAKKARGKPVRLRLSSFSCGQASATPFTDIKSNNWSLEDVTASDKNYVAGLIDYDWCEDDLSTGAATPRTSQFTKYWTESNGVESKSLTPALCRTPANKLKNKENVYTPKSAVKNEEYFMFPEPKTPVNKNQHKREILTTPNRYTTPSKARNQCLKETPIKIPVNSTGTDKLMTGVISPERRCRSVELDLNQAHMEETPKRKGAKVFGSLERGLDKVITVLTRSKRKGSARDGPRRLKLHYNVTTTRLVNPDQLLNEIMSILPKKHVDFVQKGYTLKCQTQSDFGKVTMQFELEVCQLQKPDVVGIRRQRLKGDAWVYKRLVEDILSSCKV
T5 sequence (P28482 whole entry, the tested form may be a part): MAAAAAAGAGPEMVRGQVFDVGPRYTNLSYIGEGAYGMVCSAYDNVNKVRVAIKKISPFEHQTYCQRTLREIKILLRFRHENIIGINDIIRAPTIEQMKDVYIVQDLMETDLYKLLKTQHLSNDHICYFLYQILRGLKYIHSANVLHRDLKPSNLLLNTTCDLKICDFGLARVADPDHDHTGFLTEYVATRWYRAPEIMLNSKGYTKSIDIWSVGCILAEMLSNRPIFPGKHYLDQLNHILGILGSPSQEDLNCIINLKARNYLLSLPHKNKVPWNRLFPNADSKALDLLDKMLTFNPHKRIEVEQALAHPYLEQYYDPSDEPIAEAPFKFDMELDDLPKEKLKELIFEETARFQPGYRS

Structure (SMILES) | ∆Tm (K) (LRRK2^KW; listed as 32 (RN341)) | ∆Tm (K) (LRRK2^KW; listed as RN341) | dTm [1] [K] | dTm [2] [K] | dTm [3] [K] | dTm [4] [K] | dTm [5] [K] | dTm [6] [K] | dTm [7] [K] | ∆Tm (K) (LRRK2^KW) | dTm LRRK2(KW) [K] (LRRK2^KW; screen of 31 type-II inhibitors, Table S1)
CCSc1nc(NC)c2c(-c3cccc(NC(=O)Nc4cc(C(C)(C)C)nn4-c4ccc(C)cc4)c3)c[nH]c2n1 [Compound 32] | 19.9 | 20 | 1.19 | -0.14 | 0.53 | 0.25 | 0.08 | 0.57 | 9.18 |  | 
COc1cc(C(=O)N2CCOCC2)c(F)cc1Nc1nc(N(C)C)c2c(Cl)c[nH]c2n1 [Compound 36] |  |  | 1.11 | 7.95 | -0.64 | 1.60 | 2.52 | 3.71 | 0.85 | 16.0 | 
COc1cc2c(Oc3ccc(NC(=O)C4(C(=O)Nc5ccc(F)cc5)CC4)cc3F)ccnc2cc1OCCCN1CCOCC1 [Foretinib, reference compound] |  |  | 7.59 | 1.61 | 8.88 | 0.0844 | 0.82 | 4.04 | 9.64 | 12.1 ± 0.1 | 11.5
Cc1ccc(C(=O)Nc2ccc(CN3CCN(C)CC3)c(C(F)(F)F)c2)cc1C#Cc1cnc2[nH]ncc2c1 [GZD-824, reference compound] |  |  | 5.45 | -0.11 | 7.78 | 0.87 | 5.77 | -2.15 | 6.08 | 21.2 ± 2.5 | 
